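These data come from cells grown in 96-well plates and exposed to compound for 48 hours at five concentrations. GI50 marks 50% less growth.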 Activity calls are given as the source filed them. No stated cut-off is given here; in the data, active = GI50 up to about 1.1 µM and inactive = higher.
Key:
Experiment in all cases: growth of human tumour cells (NCI), 48 h
[1] = system: MDA-MB-435
[2] = system: IGROV-1
[3] = system: LOX IMVI
[4] = system: OVCAR-5
[5] = system: KM12
[6] = system: SNB-19
[7] = system: HCT-116
[8] = system: SK-MEL-5
[9] = system: MDA-MB-231
[10] = system: SF-295
[11] = system: HOP-62
[12] = system: EKVX
[13] = system: ACHN
[14] = system: RPMI-8226
[15] = system: Hs-578T
[16] = system: CAKI-1
[17] = system: SK-MEL-28
[18] = system: SN12C
[19] = system: RXF 393
[20] = system: MOLT-4
[21] = system: CCRF-CEM
[22] = system: UACC-257
[23] = system: OVCAR-8
[24] = system: NCI-H226
[25] = system: SK-MEL-2
[26] = system: HL-60
[27] = system: SK-OV-3
[28] = system: TK-10
[29] = system: M14
[30] = system: SR
[31] = system: SW-620
[32] = system: BT-549
[33] = system: T47D
[34] = system: SNB-75
[35] = system: NCI/ADR-RES
[36] = system: NCI-H460
[37] = system: SF-268
[38] = system: NCI-H522
[39] = system: UACC-62
[40] = system: Malme-3M
[41] = system: OVCAR-4
[42] = system: PC-3
[43] = system: HCC 2998
[44] = system: HOP-92
[45] = system: SF-539
[46] = system: UO-31
[47] = system: HCT-15
[48] = system: A498
[49] = system: HT-29
[50] = system: K562
[51] = system: A549
[52] = system: U-251
[53] = system: MDA-N
[54] = system: MCF7
[55] = system: 786-0
[56] = system: COLO 205
[57] = system: NCI-H23
[58] = system: DU-145
[59] = system: OVCAR-3

With `c1csc(-c2ccc(-c3ccsc3)s2)c1` the GI50 [1] was > 100 µM (inactive), the GI50 [2] was > 100 µM (inactive) and the GI50 [3] was > 100 µM (inactive). For the same compound, the GI50 [4] was > 100 µM (inactive), the GI50 [5] was > 100 µM (inactive) and the GI50 [6] was > 100 µM (inactive). The GI50 [7] was > 100 µM (inactive), the GI50 [8] was > 100 µM (inactive) and the GI50 [9] was > 100 µM (inactive). For the same compound, the GI50 [10] was > 100 µM (inactive), the GI50 [11] was > 100 µM (inactive) and the GI50 [12] was > 87.3 µM (inactive). The GI50 [13] was > 100 µM (inactive), the GI50 [14] was > 100 µM (inactive) and the GI50 [15] was 98.4 µM (inactive). The GI50 [16] was > 100 µM (inactive), the GI50 [17] was > 100 µM (inactive) and the GI50 [18] was > 100 µM (inactive). For the same compound, the GI50 [19] was > 87.9 µM (inactive), the GI50 [20] was > 100 µM (inactive) and the GI50 [21] was > 100 µM (inactive). For the same compound, the GI50 [22] was > 100 µM (inactive), the GI50 [23] was > 100 µM (inactive) and the GI50 [24] was > 75.5 µM (inactive). The GI50 [25] was > 100 µM (inactive), the GI50 [26] was > 100 µM (inactive) and the GI50 [27] was > 100 µM (inactive). For the same compound, the GI50 [28] was > 100 µM (inactive), the GI50 [29] was > 100 µM (inactive) and the GI50 [30] was > 100 µM (inactive). For the same compound, the GI50 [31] was > 100 µM (inactive), the GI50 [32] was > 100 µM (inactive) and the GI50 [33] was > 27.4 µM (inactive). For the same compound, the GI50 [34] was 57.4 µM (inactive), the GI50 [35] was > 100 µM (inactive) and the GI50 [36] was > 100 µM (inactive). For the same compound, the GI50 [37] was > 100 µM (inactive), the GI50 [38] was > 100 µM (inactive) and the GI50 [39] was > 100 µM (inactive). The GI50 [40] was > 100 µM (inactive), the GI50 [41] was > 100 µM (inactive) and the GI50 [42] was 97.5 µM (inactive). For the same compound, the GI50 [43] was > 100 µM (inactive), the GI50 [44] was > 100 µM (inactive) and the GI50 [45] was 68.5 µM (inactive). The GI50 [46] was > 100 µM (inactive), the GI50 [47] was over 100 µM and the GI50 [48] was > 100 µM (inactive). For the same compound, the GI50 [49] was > 100 µM (inactive), the GI50 [50] was > 100 µM (inactive) and the GI50 [51] was > 100 µM (inactive). For the same compound, the GI50 [52] was > 100 µM (inactive), the GI50 [53] was > 100 µM (inactive) and the GI50 [54] was > 100 µM (inactive). For the same compound, the GI50 [55] was > 100 µM (inactive), the GI50 [56] was > 100 µM (inactive) and the GI50 [57] was > 100 µM (inactive).

With `O=C1/C(=C/C=C/c2ccccc2)N=C(c2ccccc2)N1c1ccc(S(=O)(=O)Nc2nccs2)cc1` the GI50 [1] was 28.2 µM (inactive), the GI50 [2] was 20.2 µM (inactive) and the GI50 [3] was 21.8 µM (inactive). The GI50 [4] was 31.6 µM (inactive), the GI50 [5] was 26.5 µM (inactive) and the GI50 [6] was 37.2 µM (inactive). For the same compound, the GI50 [7] was 29.6 µM (inactive), the GI50 [8] was 20.6 µM (inactive) and the GI50 [10] was 33.5 µM (inactive). For the same compound, the GI50 [11] was 39.3 µM (inactive), the GI50 [12] was 26.3 µM (inactive) and the GI50 [13] was 17.8 µM (inactive). The GI50 [14] was 21.9 µM (inactive), the GI50 [15] was 37.8 µM (inactive) and the GI50 [16] was 65.9 µM (inactive). For the same compound, the GI50 [18] was 30 µM (inactive), the GI50 [19] was 13.2 µM (inactive) and the GI50 [20] was 50.1 µM (inactive). For the same compound, the GI50 [21] was 32.4 µM (inactive), the GI50 [22] was 34.6 µM (inactive) and the GI50 [23] was 29.3 µM (inactive). The GI50 [24] was 20 µM (inactive), the GI50 [25] was 25.1 µM (inactive) and the GI50 [26] was 46.1 µM (inactive). The GI50 [27] was 28.1 µM (inactive), the GI50 [58] was 37.8 µM (inactive) and the GI50 [59] was 21.1 µM (inactive). The GI50 [28] was 30.8 µM (inactive), the GI50 [29] was 26.4 µM (inactive) and the GI50 [30] was 30.9 µM (inactive). For the same compound, the GI50 [31] was 35.1 µM (inactive), the GI50 [32] was 19.8 µM (inactive) and the GI50 [33] was 27.6 µM (inactive). The GI50 [34] was 45.1 µM (inactive), the GI50 [35] was > 100 µM (inactive) and the GI50 [36] was 25.8 µM (inactive). For the same compound, the GI50 [37] was 14 µM (inactive), the GI50 [38] was 14.3 µM (inactive) and the GI50 [39] was 18.2 µM (inactive). The GI50 [40] was 32.7 µM (inactive), the GI50 [41] was 30 µM (inactive) and the GI50 [42] was 36.4 µM (inactive). For the same compound, the GI50 [44] was 45.9 µM (inactive), the GI50 [45] was 20.8 µM (inactive) and the GI50 [46] was 15.6 µM (inactive). The GI50 [47] was 24.4 µM, the GI50 [48] was 32.1 µM (inactive) and the GI50 [49] was 23 µM (inactive). For the same compound, the GI50 [50] was 40.2 µM (inactive), the GI50 [51] was 31.8 µM (inactive) and the GI50 [52] was 17.9 µM (inactive). For the same compound, the GI50 [53] was 27.7 µM (inactive), the GI50 [54] was 18.7 µM (inactive) and the GI50 [55] was 34.8 µM (inactive). For the same compound, the GI50 [56] was 18.8 µM (inactive) and the GI50 [57] was 21.3 µM (inactive).

For `CCOC(=O)C(=O)C(/C(=N/N(C)C)C(=O)Nc1ccc(C)cc1C)c1nc2ccccc2nc1O` (stereo not given), the GI50 [1] was > 100 µM (inactive), the GI50 [2] was > 100 µM (inactive) and the GI50 [3] was > 100 µM (inactive). The GI50 [4] was > 100 µM (inactive), the GI50 [5] was > 100 µM (inactive) and the GI50 [6] was > 100 µM (inactive). The GI50 [7] was > 100 µM (inactive), the GI50 [8] was > 100 µM (inactive) and the GI50 [9] was > 100 µM (inactive). For the same compound, the GI50 [10] was > 100 µM (inactive), the GI50 [11] was > 100 µM (inactive) and the GI50 [12] was 49.1 µM (inactive). The GI50 [13] was > 100 µM (inactive), the GI50 [14] was > 100 µM (inactive) and the GI50 [15] was > 100 µM (inactive). For the same compound, the GI50 [16] was > 100 µM (inactive), the GI50 [17] was > 100 µM (inactive) and the GI50 [18] was > 100 µM (inactive). The GI50 [19] was > 100 µM (inactive), the GI50 [20] was > 100 µM (inactive) and the GI50 [21] was > 100 µM (inactive). The GI50 [22] was > 100 µM (inactive), the GI50 [23] was > 100 µM (inactive) and the GI50 [24] was > 100 µM (inactive). For the same compound, the GI50 [25] was > 100 µM (inactive), the GI50 [26] was > 100 µM (inactive) and the GI50 [27] was > 100 µM (inactive). For the same compound, the GI50 [59] was > 100 µM (inactive), the GI50 [28] was > 100 µM (inactive) and the GI50 [29] was > 100 µM (inactive). The GI50 [30] was > 100 µM (inactive), the GI50 [31] was > 100 µM (inactive) and the GI50 [32] was > 100 µM (inactive). The GI50 [33] was > 100 µM (inactive), the GI50 [34] was > 100 µM (inactive) and the GI50 [35] was > 100 µM (inactive). For the same compound, the GI50 [36] was > 100 µM (inactive), the GI50 [37] was > 100 µM (inactive) and the GI50 [38] was > 100 µM (inactive). For the same compound, the GI50 [39] was > 100 µM (inactive), the GI50 [40] was > 100 µM (inactive) and the GI50 [41] was > 100 µM (inactive). The GI50 [42] was > 100 µM (inactive), the GI50 [43] was > 100 µM (inactive) and the GI50 [44] was > 100 µM (inactive). For the same compound, the GI50 [45] was > 100 µM (inactive), the GI50 [46] was > 100 µM (inactive) and the GI50 [47] was over 100 µM. The GI50 [48] was > 100 µM (inactive), the GI50 [49] was > 100 µM (inactive) and the GI50 [50] was > 100 µM (inactive). The GI50 [51] was > 100 µM (inactive), the GI50 [52] was > 100 µM (inactive) and the GI50 [53] was > 100 µM (inactive). For the same compound, the GI50 [54] was > 100 µM (inactive), the GI50 [55] was > 100 µM (inactive) and the GI50 [57] was > 100 µM (inactive).

— ChEMBL document CHEMBL1201862, “PubChem BioAssay data set” (2004)
